How the values were obtained:
Type in all cases: cell-based
[1] = system: Escherichia coli (NCTC 10418); experiment: Alanine peptidase detection, substrates with one to three amino acids (Example 15); set-up: key to color of the colony: R=pink; RP=pale pink; I=colorless; conditions: 50 mg/l
Procedure: (§1) 1000 ml of Columbia medium was melted in a waterbath at 100° C. and autoclaved at 121° C. for 15 min. It was then cooled to 50° C. in a waterbath.
(§2) This medium was separated into 5 flasks of 200 ml, and then, added at 50° C., as substrates, was that of Example 2 for which A is: • medium 1: L-alanine (L-alanine-9-aminobenzo[a]phenoxazin-5-one or A-ABP), • medium 2: L-alanine-L-alanine (L-alanine-L-alanine-9-aminobenzo-[a]phenoxazin-5-one or AA-ABP), • medium 3: L-alanine-L-alanine-L-alanine (L-alanine-L-alanine-L-alanine-9-aminobenzo[a]phenoxazin-5-one or AAA-ABP), • medium 4: L-alanine-glycine (L-alanine-glycine-9-aminobenzo[a]phenoxazin-5-one or AG-ABP), and • medium 5: glycine-L-alanine (glycine-L-alanine-9-aminobenzo[a]phenoxazin-5-one or GA-ABP), each substrate being solubilized in DMSO and used at a final concentration of 50 mg/l.
(§3) The medium was then poured into Petri dishes.
(§4) Nine microorganism strains derived from the Applicant's collection, suspended in physiological saline, were seeded in colonies on the media prepared in point 15.1 above according to a multipoint inoculation in a proportion of 15 000 cfu/spot. The dishes were incubated at 37° C. for 48 hours. The colonies formed were examined visually after incubation for 24 and 48 hours.
(§5) The results are expressed in Tables 7 and 8 hereinafter according to the rules and the nomenclature stated in paragraph 11.3 and where R=pink, RP=pale pink and I=colorless.

[2] = system: Staphylococcus aureus (NCTC 6571); experiment: as above; set-up: key to color of the colony: R=pink; RP=pale pink; I=colorless; conditions: 50 mg/l
Procedure: as §1, §2, §3, §4, §5

[3] = system: Enterobacter clocae (NCTC 11936); experiment: as above; set-up: key to color of the colony: R=pink; RP=pale pink; I=colorless; conditions: 50 mg/l
Procedure: as §1, §2, §3, §4, §5

[4] = system: Acinetobacter baumannii (ATCC 19606); experiment: as above; set-up: key to color of the colony: R=pink; RP=pale pink; I=colorless; conditions: 50 mg/l
Procedure: as §1, §2, §3, §4, §5

[5] = system: Listeria monocytogenes (NCTC 11994); experiment: as above; set-up: key to color of the colony: R=pink; RP=pale pink; I=colorless; conditions: 50 mg/l
Procedure: as §1, §2, §3, §4, §5

[6] = system: Staphylococcus epidermis (NCTC 11047); experiment: as above; set-up: key to color of the colony: R=pink; RP=pale pink; I=colorless; conditions: 50 mg/l
Procedure: as §1, §2, §3, §4, §5

[7] = system: Pseudomonas aerigunosa (NCTC 10038); experiment: as above; set-up: key to color of the colony: R=pink; RP=pale pink; I=colorless; conditions: 50 mg/l
Procedure: as §1, §2, §3, §4, §5

[8] = system: Micrococcus luteus (NCTC611); experiment: as above; set-up: key to color of the colony: R=pink; RP=pale pink; I=colorless; conditions: 50 mg/l
Procedure: as §1, §2, §3, §4, §5

Klebsellia pneumoniae = experiment: Leucine-peptidase detection on agar medium (Example 11); as to color of the colony: key: B corresponds to fluorescent blue; R corresponds to pink
Procedure: (§6) The detection medium was prepared by mixing 1.4 g of biogelytone (bioMérieux), 0.84 g of meat extract (bioMérieux), 2.24 g of NaCl (Merck), 280 μl of a solution of IPTG (isopropylthio-β-D-galactopyranoside, BIOSYNTH) in water (concentration 10 g/l) and 4.2 g of European agar (bioMérieux).
(§7) The substrate of the invention obtained in Example 2, in which the amino acid is leucine (leucine-9-aminobenzo[a]phenoxazin-5-one or Leu-ABP), or else a substrate of the prior art, which is leucine-aminomethylcoumarin (Leu-AMC, BACHEM), was then added in the following way: 280 ml of osmosed water were added to the medium, and the mixture was melted in a waterbath at 100° C. The mixture was autoclaved for 15 min at 121° C. and cooled to 50° C. in a waterbath.
as §3
(§8) The coloration of these colonies, the diffusion, and also the intensity of this coloration were noted.
(§9) The results were expressed as intensity of coloration using an arbitrary scale ranging from 0 to 4 as a basis and also as diffusion also using an arbitrary scale ranging from 0 to 4 as a basis.

Serratia marcescens = experiment: as above; as to color of the colony: key: B corresponds to fluorescent blue; R corresponds to pink
Procedure: as §6, §7, §3, §8, §9

L-alanyl-9-aminobenzo[a]phenoxazin-5-one [Ala-ABP]
3 mm: growth diameter ([1]; 24 h) | growth diameter ([1]; 48 h) | growth diameter ([3]; 24 h) | growth diameter ([3]; 48 h) | growth diameter ([4]; 24 h) | growth diameter ([4]; 48 h) | growth diameter ([7]; 24 h) | growth diameter ([7]; 48 h)
I: color of the colony ([2]; 48 h) | color of the colony ([5]; 24 h)
0 mm: growth diameter ([2]; 24 h) | growth diameter ([6]; 24 h) | growth diameter ([6]; 48 h) | growth diameter ([8]; 24 h) | growth diameter ([8]; 48 h)
2 mm: growth diameter ([2]; 48 h) | growth diameter ([5]; 24 h) | growth diameter ([5]; 48 h)
R: color of the colony ([1]; 24 h) | color of the colony ([1]; 48 h) | color of the colony ([3]; 24 h) | color of the colony ([3]; 48 h) | color of the colony ([4]; 24 h) | color of the colony ([4]; 48 h) | color of the colony ([5]; 48 h) | color of the colony ([7]; 24 h) | color of the colony ([7]; 48 h)

leucine-9-aminobenzo[a]phenoxazin-5-one [Leu-ABP]
1: intensity of coloration, scale 0 to 4 (Klebsellia pneumoniae; 48 h, 200 mg/l) | intensity of coloration, scale 0 to 4 (Klebsellia pneumoniae; 48 h, 400 mg/l) | intensity of coloration, scale 0 to 4 (Serratia marcescens; 24 h, 50 mg/l) | intensity of coloration, scale 0 to 4 (Serratia marcescens; 48 h, 200 mg/l)
0.5 mm: growth diameter (Serratia marcescens; 24 h, 25 mg/l) | growth diameter (Serratia marcescens; 48 h, 50 mg/l) | growth diameter (Serratia marcescens; 48 h, 100 mg/l) | growth diameter (Serratia marcescens; 48 h, 200 mg/l) | growth diameter (Serratia marcescens; 48 h, 400 mg/l)
1.7 mm: growth diameter (Klebsellia pneumoniae; 24 h, 50 mg/l) | growth diameter (Klebsellia pneumoniae; 24 h, 100 mg/l) | growth diameter (Klebsellia pneumoniae; 24 h, 200 mg/l) | growth diameter (Klebsellia pneumoniae; 24 h, 400 mg/l) | growth diameter (Klebsellia pneumoniae; 48 h, 50 mg/l) | growth diameter (Klebsellia pneumoniae; 48 h, 100 mg/l) | growth diameter (Klebsellia pneumoniae; 48 h, 200 mg/l)
1.8 mm: growth diameter (Klebsellia pneumoniae; 24 h, 25 mg/l) | growth diameter (Klebsellia pneumoniae; 48 h, 25 mg/l) | growth diameter (Klebsellia pneumoniae; 48 h, 400 mg/l)
0.4 mm: growth diameter (Serratia marcescens; 24 h, 50 mg/l) | growth diameter (Serratia marcescens; 24 h, 100 mg/l) | growth diameter (Serratia marcescens; 24 h, 200 mg/l) | growth diameter (Serratia marcescens; 24 h, 400 mg/l)
2: intensity of coloration, scale 0 to 4 (Klebsellia pneumoniae; 24 h, 200 mg/l) | intensity of coloration, scale 0 to 4 (Klebsellia pneumoniae; 48 h, 25 mg/l)
2.5: intensity of coloration, scale 0 to 4 (Klebsellia pneumoniae; 24 h, 400 mg/l) | intensity of coloration, scale 0 to 4 (Klebsellia pneumoniae; 48 h, 50 mg/l) | intensity of coloration, scale 0 to 4 (Serratia marcescens; 48 h, 25 mg/l)
0.25: intensity of coloration, scale 0 to 4 (Serratia marcescens; 24 h, 100 mg/l)
R: color of the colony (Klebsellia pneumoniae; 24 h, 25 mg/l) | color of the colony (Klebsellia pneumoniae; 24 h, 50 mg/l) | color of the colony (Klebsellia pneumoniae; 24 h, 100 mg/l) | color of the colony (Klebsellia pneumoniae; 24 h, 200 mg/l) | color of the colony (Klebsellia pneumoniae; 24 h, 400 mg/l) | color of the colony (Klebsellia pneumoniae; 48 h, 25 mg/l) | color of the colony (Klebsellia pneumoniae; 48 h, 50 mg/l) | color of the colony (Klebsellia pneumoniae; 48 h, 100 mg/l) | color of the colony (Klebsellia pneumoniae; 48 h, 200 mg/l) | color of the colony (Klebsellia pneumoniae; 48 h, 400 mg/l) | color of the colony (Serratia marcescens; 24 h, 25 mg/l) | color of the colony (Serratia marcescens; 24 h, 50 mg/l) | color of the colony (Serratia marcescens; 24 h, 100 mg/l) | color of the colony (Serratia marcescens; 48 h, 25 mg/l) | color of the colony (Serratia marcescens; 48 h, 50 mg/l) | color of the colony (Serratia marcescens; 48 h, 100 mg/l) | color of the colony (Serratia marcescens; 48 h, 200 mg/l) | color of the colony (Serratia marcescens; 48 h, 400 mg/l)
0.5: intensity of coloration, scale 0 to 4 (Serratia marcescens; 24 h, 25 mg/l) | intensity of coloration, scale 0 to 4 (Serratia marcescens; 48 h, 400 mg/l)
3: intensity of coloration, scale 0 to 4 (Serratia marcescens; 48 h, 50 mg/l)
1.5: intensity of coloration, scale 0 to 4 (Klebsellia pneumoniae; 24 h, 25 mg/l) | intensity of coloration, scale 0 to 4 (Klebsellia pneumoniae; 24 h, 50 mg/l) | intensity of coloration, scale 0 to 4 (Klebsellia pneumoniae; 24 h, 100 mg/l) | intensity of coloration, scale 0 to 4 (Klebsellia pneumoniae; 48 h, 100 mg/l) | intensity of coloration, scale 0 to 4 (Serratia marcescens; 48 h, 100 mg/l)
0.7 mm: growth diameter (Serratia marcescens; 48 h, 25 mg/l)

— patent publication US7695930B2, “Method for the detection, identification and/or quantification of microoganisms with peptidase activity using phenoxazinone derivatives as enzyme substrates” (Biomerieux, priority 2003, dated 2010)
